# Activity calls are given as the source filed them.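 How the source made its calls: active means cytotoxic at 24 hours, with mean IC50 of 20 µM or lower; inactive means the rest.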
# System: CHO-XBP1 cytotoxicity, ATPlite luminescence, 24 h
# Assay: CHO-XBP1 cell viability loss – 24 h exposure, ATPlite luminescence, cytotoxicity control for UPR adaptive arm activator project, SAR follow-up (AID 588565)
row,SMILES,IC50
1,Cc1ccc(NC(=O)c2cc(-c3ccncc3)nc3ccccc23)cc1,> 80 µM (inactive)
2,O=C(Nc1ccc(C(F)(F)F)cc1)c1cc(-c2ccncc2)nc2ccccc12,> 80 µM (inactive)
3,O=C(Nc1ccc(Br)c(C(F)(F)F)c1)c1cc(-c2ccncc2)nc2ccccc12,> 80 µM (inactive)
4,O=C(Nc1ccc(F)cc1)c1cc(-c2ccncc2)nc2ccccc12,> 80 µM (inactive)
5,Cc1cc(Br)cc(NC(=O)c2cc(-c3ccncc3)nc3ccccc23)c1,> 80 µM (inactive)
6,Cc1nc(Nc2nc(-c3ccccc3)cc(=O)[nH]2)nc2ccccc12,> 80 µM (inactive)
7,O=C(Nc1ccc(Cl)cc1)c1cc(-c2ccncc2)nc2ccccc12,64 µM (inactive)

# Source: PubChem BioAssay AID588565 (Sanford-Burnham Center for Chemical Genomics, 2011)
